Experiment: solubility
Assay type: physicochemical
Settings: all solvents except aqueous base

With O=C(O)C(CS)NCCNC(CS)C(=O)O [N,N'-1,2-ethylenediylbis-L-cysteine] the solubility was “insoluble in all solvents except aqueous base”.

— US5279811A, “Ester-substituted diaminedithiols and radiolabeled complexes thereof” (The Du Pont Merck Pharmaceutical Company, priority 1988, dated 1994)
